{"source": "patent US10000469B2", "about": "“Heat shock protein 70 (hsp-70) receptor ligands” (Duke University, priority 2014, dated 2018)", "key": {"MCF10A": {"test_system": "MCF10A", "experiment": "Cell proliferation, MCF10A", "format": "cell-based", "details": "non tumorigenic MCF10A", "protocol": "Cell Proliferation: Cell proliferation was determined using a Hoechst stain (Sigma, St. Louis, Mo.) to quantify DNA. 5,000 cells of the designated cell line were plated in 96 well plates and treated the next day, designated as time point 0, with the indicated concentration of the specified compound maintained for the duration of the assay. At the indicated time points the media was removed and plated frozen at −80° C. Double distilled H2O was then added and the plates were incubated at 37° C. for 1 hour. After 1 hour the plates were frozen at −80° C. After freezing the plates were thawed and Hoechst stain was diluted 1:1000 in THE buffer (10 mM Tris, 2M NaCl, 1 mM Na2EDTA). The final fluorescence was measured on the Victor X2 plate reader at 355/460 nm, and cell proliferation was determined with the formula: % Cell Proliferation=100×(Sample fluorescence−background fluorescence)/(Control fluorescence−background fluorescence)."}, "Hsp70": {"target": "Hsp70 (Homo sapiens, UniProt P0DMV8)", "sequence (P0DMV8 whole entry)": "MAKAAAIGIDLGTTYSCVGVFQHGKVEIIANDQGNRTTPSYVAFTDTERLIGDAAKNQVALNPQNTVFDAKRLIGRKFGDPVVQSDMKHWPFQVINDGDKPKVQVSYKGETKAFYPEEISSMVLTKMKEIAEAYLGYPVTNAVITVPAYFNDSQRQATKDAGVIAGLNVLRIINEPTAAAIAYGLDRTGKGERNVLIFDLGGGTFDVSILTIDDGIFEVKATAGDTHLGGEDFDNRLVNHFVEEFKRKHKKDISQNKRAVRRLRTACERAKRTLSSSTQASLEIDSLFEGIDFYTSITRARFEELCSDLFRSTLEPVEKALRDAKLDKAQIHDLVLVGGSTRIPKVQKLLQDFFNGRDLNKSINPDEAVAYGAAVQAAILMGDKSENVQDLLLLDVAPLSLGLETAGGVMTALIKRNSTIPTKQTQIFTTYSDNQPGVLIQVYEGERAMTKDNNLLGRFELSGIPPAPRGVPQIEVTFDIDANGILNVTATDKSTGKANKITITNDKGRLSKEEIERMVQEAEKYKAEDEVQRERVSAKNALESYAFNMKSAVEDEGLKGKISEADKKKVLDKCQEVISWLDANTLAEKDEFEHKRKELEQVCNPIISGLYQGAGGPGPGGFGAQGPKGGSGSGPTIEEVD", "experiment": "Single turnover ATPase assay", "format": "biochemical", "details": "presence or absence of co-chaperone Hlj1", "protocol": "ATPase Assay: Single turnover assays were performed as previously described [Fewell et al. (2004). Small molecule modulators of endogenous and co-chaperone-stimulated Hsp70 ATPase activity. The Journal of biological chemistry 279, 51131-51140]. Briefly, Hsp70 was incubated with ^32P-ATP and cold ATP in single turnover buffer (1M KCl, 250 mM HEPES, 110 mM MgOAc) for 30 minutes on ice. ^32P-ATP-Hsp70 complex was purified from a Nick Column-Sephadex G-50 (Amersham, Piscataway, N.J.). Glycerol was added and the complexes were stored at −80° C. To determine ATP hydrolysis, a sample was thawed and added to single turnover buffer containing Hlj1 and compound added after 60 seconds. At the specified time points an aliquot of the reaction is removed, added to stop solution (2M LiCl, 4M formic acid, 36 mM ATP) and spotted on a TLC plate. The percentage of ATP hydrolyzed to ADP and P, was then calculated."}, "[1]": {"experiment": "HS-72 PK in plasma, kidney and liver", "format": "in vivo, mice", "protocol": "HS-72 PK: Wild-type mice were injected IP with HS-72 and sacrificed 5 minutes, 1 hour, 4 hours, 8 hours, and 24 hours post injection. Untreated animals were included as control and called 0 minutes. Each time point consisted of 3 animals. At the indicated time points liver, kidney, and blood was harvested from each animal. Whole blood was centrifuged and only the plasma was retained. Whole liver and kidneys were frozen and stored at −80° C. until processing. Before quantifying HS-72 in the plasma and tissue a standard curve was made using HS-72 and N-(1-methyl-1H-benzo[d]imidazol-2-yl)-1-(pyrazin-2-yl)piperidine-3-carboxamide (“HS-156”), as the internal standard. HS-72 and HS-156 were diluted in water and were further diluted 1:4 in acetonitrile. The resulting solution was then filtered through a 0.2 μm PTFE membrane (VWR, Radnor, Pa.). 15 uL of the solution was run through an Eclipse Plus C18 column (Agilent, Santa Clara, Calif.) and analyzed by an Agilent Ion Trap 6130 LC-MS (Agilent, Santa Clara, Calif.). The total ion chromatogram (TIC), extracted ion chromatogram (EIC), UV chromatogram, and mass spectra (MS) were obtained for each run. The area under the curve from the EIC for HS-72 at 364-366 and for HS-156 at 337 was determined. The EIC area ratio for HS-72 compared to HS-156 was calculated and this ratio was used to plot a standard curve based on the known concentrations of HS-72. The plasma samples were processed in the same manner as in the standard curve and analyzed by LC-MS. The resulting EIC ratios from HS-72 compared to HS-156 were then determined, which was used to calculate the concentration of HS-72 in the diluted sample. The concentration in solution of HS-72 was adjusted for the 1:4 dilution that occurs during sample preparation. The final concentration of HS-72 in plasma was calculated per mL of plasma. The liver and kidney samples were weighed and homogenized in tissue lysis buffer. The resulting homogenate was then processed in the same manner as the plasma samples. The resulting EIC ratios from HS-72 compared to HS-156 were then determined, which was used to calculate the concentration of HS-72 in the diluted sample. The concentration in solution of HS-72 was adjusted for the 1:4 dilution that occurs during sample preparation. Final concentration of HS-72 in the kidney and liver was calculated per gram of tissue using the weight of each tissue measured before sample processing."}, "MMTV-neu mice": {"test_system": "MMTV-neu mice", "experiment": "HS-72 in vivo efficacy study", "parameters": "species or system mouse", "details": "for tumor volume vs. no treatment: at 21 days, p<0.05", "protocol": "HS-72 in vivo Efficacy Studies: MMTV-neu mice, a HER2 overexpression breast cancer mouse model in which HER2 is under the transcriptional control of the mouse mammary tumor virus promoter/enhancer, were treated with the indicated doses and dosing schedule [Taneja et al., 2009]. All doses were delivered through IP injections using DMSO and their tumors were calipered once weekly. The mice were culled upon reaching tumor burden or if they expressed signs of toxicity as per MP1U standard protocol."}, "[2]": {"details": "24 hours, IP 20 mg/Kg, n=3, SEM"}}, "note": "Entries after “also recorded” stand apart in the source; their conditions may differ.", "data": [{"smiles": "CCCn1c(NC(=O)[C@H]2CCCN(c3cnccn3)C2)nc2ccccc21", "note": "[HS-72, (S)—N-(1-propyl-1H-benzo[d]imidazol-2-yl)-1-(pyrazin-2-yl)piperidine-3-carboxamide]", "values": [{"measurement": "cell proliferation", "setting": "MCF10A", "value": "insensitive; also recorded: continue to grow at all concentrations"}, {"measurement": "effect on Hsp70 ATPase activity", "setting": "Hsp70", "value": "does not reduce"}, {"measurement": "plasma concentration", "setting": "[1]; 5 minutes post IP injection, 20 mg/Kg, n=3, SEM", "value": "70 ± 30", "unit": "µM"}, {"measurement": "kidney concentration", "setting": "[1]; 5 minutes, IP 20 mg/Kg, n=3, SEM", "value": "0.43 ± 0.08", "unit": "µmol/g"}, {"measurement": "plasma concentration", "setting": "[1]; 8 hours post IP injection, 20 mg/Kg, n=3, SEM", "value": "2 ± 0.2", "unit": "µM"}, {"measurement": "liver concentration (peak)", "setting": "[1]; 8 hours, IP 20 mg/Kg, n=3, SEM", "value": "2.26 ± 0.5", "unit": "µmol/g"}, {"measurement": "kidney concentration", "setting": "[1]; [2]", "value": "0.02 ± 0.004", "unit": "µmol/g"}, {"measurement": "liver concentration", "setting": "[1]; [2]", "value": "0.51 ± 0.11", "unit": "µmol/g"}, {"measurement": "plasma [HS-72] maintained", "setting": "[1]; for at least 8 hours", "value": "> 20", "unit": "µM"}, {"measurement": "concentration at 24 hours", "setting": "[1]; mouse, plasma, 24 hours post IP injection, 20 mg/Kg, read-out: plasma concentration, trace amounts", "value": "< 10", "unit": "µM"}, {"measurement": "half-life", "setting": "[1]; mouse, plasma, IP 20 mg/Kg, n=3, SEM, read-out: T1/2 elimination from plasma (converted)", "value": "24 ± 6", "unit": "min"}, {"measurement": "metabolism in plasma, kidney and liver", "setting": "[1]; parent MS ion of 365.2 Da detected intact", "value": "no evidence of rapid metabolism"}, {"measurement": "increase of median survival vs. no treatment", "setting": "MMTV-neu mice; I.P. 20 mpk BiW", "value": 6, "unit": "days"}, {"measurement": "tumor volume vs. no treatment", "setting": "MMTV-neu mice; I.P. 20 mpk BiW, 20 mg/kg", "value": "significant reduction"}, {"measurement": "tumor volume vs. no treatment", "setting": "MMTV-neu mice; I.P. 20 mpk BiW, listed as HS72, 20 mg/kg", "value": "significant decrease"}, {"measurement": "increase of median survival vs. no treatment", "setting": "MMTV-neu mice; I.P. 20 mpk qd", "value": 13, "unit": "days"}]}]}
